Where two headings read alike, the source gives them in different places.
How the values were obtained:
SHR-SP cardiac tissue = experiment: cardiac gene expression in HSFD SHR-SP after chronic treatment; format: in vivo, rat
Experimental: On week 8, isoflurane anesthetized rats were euthanized via exsanguination. The thoracic aorta was excised for assessment of endothelial function as described below. Hearts were snap-frozen in liquid nitrogen and stored at −80°C for later analysis of gene expression changes associated with cardiac hypertrophy and fibrosis (see below for procedure details).
Cardiac gene expression was analyzed following chronic (7 week) BAY 60-4552 or GSK2181236A treatment in HSFD SHR-SP. Hearts were homogenized in Trizol and RNA was extracted using the RNeasy Plus Mini kit protocol (Qiagen, Valencia, CA, USA) with a 40 μL elution volume. RNA was quantified using a Nanodrop Spectrophotometer ND-1000 (Thermo Fisher Scientific, Wilmington, DE, USA) and converted to cDNA using the High Capacity cDNA Reverse Transcription Kit (Applied Biosystems, Carlsbad, CA, USA). Taqman assays were performed using a 384-well plate format with individual primer-probes and Taqman Universal PCR Master Mix (Applied Biosystems) and run on the 7900 HT Fast Real-Time PCR System (Applied Biosystems). SDS 2.3 software (Applied Biosystems) was used to obtain raw Ct values with manual threshold set at 0.10. Array Studio software (version 3.6.2; OmicSoft Corporation, Cary, NC, USA) was used to normalize gene expression data, by analysis of covariance, to the housekeeper genes β-2-microglobulin (B2m) and peptidyl-prolyl cis-trans isomerase A (Ppia). No outliers were detected by means of principal component analysis.
The following genes were analyzed: α-skeletal actin (Acta1), type 1 collagen-alpha 1 (Col1a1), type 3 collagen-alpha 1 (Col3a1), connective tissue growth factor (CTGF; Ctgf), matrix metalloproteinase 2 (MMP2; Mmp2), matrix metalloproteinase 9 (MMP9; Mmp9), α-myosin heavy chain (α-MHC; Myh6), β-myosin heavy chain (β-MHC; Myh7); atrial natriuretic factor (ANF; Nppa), brain-type natriuretic peptide (BNP; Nppb), cGMP-specific phosphodiesterase 5A (PDE5A; Pde5a), type 2 cGMP-dependent protein kinase (PKG2; Prkg2), and transforming growth factor beta 1 (TGF-β1; Tgfb1).

SHR-SP isolated aorta = experiment: direct vasodilatory effects in aorta isolated from ND and HSFD SHR-SP; parameters: species or system rat; conditions: for EC50: read-out: EC50, direct vasodilation
Experimental: In separate studies, endothelial function was assessed following chronic (7 week) BAY 60-4552 or GSK2181236A treatment in SHR-SP on HSFD. SHR-SP fed either normal or HSFD served as controls. Rats were anesthetized and thoracic aorta were isolated and treated with KCl and phenylephrine as described above. Cumulative concentration-response curves to phenylephrine were obtained by adding 0.5 log unit increments (1 nM to 3 μM). Following several washes with KHB, each vessel was contracted to equilibrium with 0.3 μM phenylephrine and tone was reversed by adding cumulative amounts of carbachol at 0.5 log unit intervals (10 nM to 30 μM). Following several KHB washes, the tissues were again contracted to equilibrium with 0.3 μM phenylephrine and tone was reversed by adding cumulative amounts of SNP at 0.5 log unit intervals (0.1 nM to 3 μM). In separate tissues from both the normal and HSFD SHR-SP control groups, the direct vasodilatory effects of BAY 60-4552 and GSK2181236A were investigated. Contractile tone induced by 0.3 μM phenylephrine was reversed by adding cumulative concentrations of BAY 60-4552 or GSK2181236A to the tissue baths at log increments (0.1 nM to 10 μM).

Structure (SMILES)	attenuation of HSFD-induced increase of α-skeletal actin expression (SHR-SP cardiac tissue; 0.3 mg/kg/day, 7 weeks) [fold]	attenuation of HSFD-induced increase of α-skeletal actin expression (SHR-SP cardiac tissue; 3.0 mg/kg/day, 7 weeks) [fold]	attenuation of HSFD-induced increase of ANF expression (SHR-SP cardiac tissue; 0.3 and 3.0 mg/kg/day, P > 0.05 vs. HSFD)	Emax, direct vasodilation (SHR-SP isolated aorta; aorta from HSFD SHR-SP) [% vasodilation]	EC50 (SHR-SP isolated aorta; aorta from HSFD SHR-SP) [nM]	Emax, direct vasodilation (SHR-SP isolated aorta; aorta from ND SHR-SP) [% vasodilation]	EC50 (SHR-SP isolated aorta; aorta from ND SHR-SP) [nM]	attenuation of HSFD-induced increase of ANF expression (SHR-SP cardiac tissue; 1.0 mg/kg/day, 7 weeks) [fold]	attenuation of HSFD-induced increase of α-skeletal actin expression (SHR-SP cardiac tissue; 1.0 mg/kg/day, 7 weeks) [fold]	EC50 (SHR-SP isolated aorta; Rattus norvegicus, aorta from HSFD SHR-SP) [nM]	EC50 (SHR-SP isolated aorta; Rattus norvegicus, aorta from ND SHR-SP) [nM]
COC(=O)Nc1c(N)nc(-c2nn(Cc3ccccc3F)c3ncccc23)nc1N [BAY 60-4552]	1.3	1.4	non-significant trend	111 ± 2	54 ± 14	110 ± 2	75 ± 16				
Cc1cc(-c2ccc(OC(F)(F)F)cc2)ccc1COc1ccccc1-c1cccc(-n2ncc(C(=O)O)c2C(F)(F)F)n1 [GSK2181236A, 1-(6-{2-[({3-methyl-4′-[(trifluoromethyl)oxy]-4-biphenylyl}methyl)oxy]phenyl}-2-pyridinyl)-5-(trifluoromethyl)-1H-pyrazole-4-carboxylic acid]				110 ± 7		110 ± 3		1.4	1.7	321 ± 168	270 ± 70

From article PMC3389674, “Comparison of Soluble Guanylate Cyclase Stimulators and Activators in Models of Cardiovascular Disease Associated with Oxidative Stress” (Frontiers in Pharmacology, 2012)
